Test results from patent US7385086B2 (priority 1997, dated 2008).

System: isoniazid (INH) resistant M. tuberculosis
Format: cell-based, Mycobacterium tuberculosis

Compound	growth inhibition	isoniazid resistance level [µg/mL]
CCCCCCCCS(=O)(=O)CC(N)=O [HIII-50, n-Octanesulphonylacetamide]	inhibits	
NNC(=O)c1ccncc1 [isoniazid, reference compound]		> 0.4
